# Laboratory results reported in ChEMBL document CHEMBL4028815, “Novel phosphonate analogs of sulforaphane: Synthesis, in vitro and in vivo anticancer activity” (Eur J Med Chem, 2017).
# The source made the active and inactive calls. The rule behind the calls is not given here.
# What was measured:
# [1] = Potency index, ratio of sulforaphane IC50 to compound IC50 for human LoVo/DX cell; format: functional
# [2] = Potency index, ratio of benzyl isothiocyanate IC50 to compound IC50 for human LoVo/DX cell; format: functional
# LoVo [3] = assay: Potency index, ratio of sulforaphane IC50 to compound IC50 for human LoVo cells; format: functional
# LoVo [4] = assay: Potency index, ratio of benzyl isothiocyanate IC50 to compound IC50 for human LoVo cells; format: functional
# LoVo [5] = assay: Cytotoxicity against human LoVo cells after 72 hrs by sulforhodamine B assay; format: functional, cell-based
# [6] = Cytotoxicity against human LoVo/DX cells after 72 hrs by sulforhodamine B assay; format: functional, cell-based
# 4T1 [7] = assay: Anti-tumor activity against mouse 4T1 cells implanted in BALB/c mdb mouse assessed as tumor growth inhibition at 25 umol/kg, ip administered 3 times weekly measured on day 29 post cell innoculum relative to control; settings: 4T1, ip, 696 h, read-out: TGI
# [8] = Cytotoxicity against human LoVo/DX cells assessed as cell death at >15 uM after 24 hrs; format: cell-based
# HL-60 = assay: Cytotoxicity against human HL60 cells after 72 hrs by sulforhodamine B assay; format: functional, cell-based; settings: HL-60, 72 h
# HL60/MX2 = assay: Cytotoxicity against human HL60/MX2 cells after 72 hrs by sulforhodamine B assay; format: functional, cell-based; settings: HL60/MX2, 72 h
# [9] = Resistance index, ratio of IC50 for human HL60/MX2 cells to IC50 for human HL60 cells; format: functional
# BALB/3T3 = assay: Cytotoxicity against mouse BALB/3T3 cells after 72 hrs by sulforhodamine B assay; format: cell-based; settings: BALB/3T3, 72 h
# A549 = assay: Cytotoxicity against human A549 cells after 72 hrs by sulforhodamine B assay; format: functional, cell-based; settings: A549, 72 h
# 4T1 [10] = assay: Cytotoxicity against mouse 4T1 cells after 72 hrs by sulforhodamine B assay; format: functional, cell-based; settings: 4T1, 72 h
# MES-SA = assay: Cytotoxicity against human MESSA cells after 72 hrs by sulforhodamine B assay; format: functional, cell-based
# MES-SA/Dx5 = assay: Cytotoxicity against human MESSA/DX5 cells after 72 hrs by sulforhodamine B assay; format: functional, cell-based; settings: MES-SA/Dx5, 72 h
# LoVo [11] = assay: Cell cycle arrest in human LoVo cells at 15 uM after 24 hrs by propidium iodide staining based flow cytometric method; format: functional
# LoVo/DX [12] = assay: Cell cycle arrest in human LoVo/DX cells at 15 uM after 24 hrs by propidium iodide staining based flow cytometric method; format: functional
# [13] = Induction of apoptosis in human LoVo/DX cells assessed as increase in caspase3/7 activity at 15 uM using Ac-DEVD-ACC as substrate pretreated for 24 hrs followed by substrate addition measured for 2 hrs by fluorescence assay relative to control; format: functional
# LoVo [14] = assay: Induction of apoptosis in human LoVo cells assessed as increase in caspase3/7 activity at 15 uM using Ac-DEVD-ACC as substrate pretreated for 24 hrs followed by substrate addition measured for 2 hrs by fluorescence assay relative to control; format: functional
# LoVo/DX [15] = assay: Induction of apoptosis in human LoVo/DX cells assessed as increase in caspase3/7 activity at >15 uM using Ac-DEVD-ACC as substrate pretreated for 24 hrs followed by substrate addition measured for 2 hrs by fluorescence assay; format: functional, cell-based
# LoVo [16] = assay: Induction of apoptosis in human LoVo cells assessed as increase in caspase3/7 activity at >15 uM using Ac-DEVD-ACC as substrate pretreated for 24 hrs followed by substrate addition measured for 2 hrs by fluorescence assay; format: functional, cell-based
# LoVo [17] = assay: Induction of apoptosis in human LoVo cells assessed as loss of mitochondrial membrane potential at 15 uM after 24 hrs by JC-1 staining based flow cytometric method relative to control; format: functional
# LoVo/DX [18] = assay: Induction of apoptosis in human LoVo/DX cells assessed as loss of mitochondrial membrane potential at 15 uM after 24 hrs by JC-1 staining based flow cytometric method relative to control; format: functional
# LoVo [19] = assay: Induction of apoptosis in human LoVo cells assessed as late apoptotic cells at 15 uM after 24 hrs by APC-Annexin-V/propidium iodide staining based flow cytometric method relative to control; format: functional
# LoVo/DX [20] = assay: Induction of apoptosis in human LoVo/DX cells assessed as late apoptotic cells at 15 uM after 24 hrs by APC-Annexin-V/propidium iodide staining based flow cytometric method relative to control; format: functional
# LoVo [21] = assay: Induction of apoptosis in human LoVo cells assessed as increase in early apoptotic cells at 15 uM after 24 hrs by APC-Annexin-V/propidium iodide staining based flow cytometric method relative to control; format: functional
# LoVo [22] = assay: Induction of apoptosis in human LoVo cells assessed as necrotic cells at 15 uM after 24 hrs by APC-Annexin-V/propidium iodide staining based flow cytometric method (reference value: 10%); format: functional
# 4T1 [23] = assay: Anti-tumor activity against mouse 4T1 cells implanted in BALB/c mdb mouse assessed as tumor growth inhibition at 450 umol/kg, ip administered five times weekly measured on day 29 post cell innoculum relative to control; format: functional; settings: 4T1, ip, 696 h, read-out: TGI
# Mus musculus [24] = assay: Toxicity in BALB/c mdb mouse implanted with mouse 4T1 cells assessed as body weight loss at 450 umol/kg, ip administered five times weekly measured 3 times weekly during compound dosing; format: organism-based; settings: in vivo
# Mus musculus [25] = assay: Toxicity in BALB/c mdb mouse implanted with mouse 4T1 cells assessed as body weight loss at 450 umol/kg, ip administered five times weekly measured on day 11; format: organism-based; settings: in vivo
# Mus musculus [26] = assay: Toxicity in BALB/c mdb mouse implanted with mouse 4T1 cells assessed as body weight loss at 450 umol/kg, ip administered five times weekly starting from day 15 post cell innoculum; format: organism-based; settings: in vivo
# Mus musculus [27] = assay: Hepatotoxicity in BALB/c mdb mouse implanted with mouse 4T1 cells assessed as liver weight at 450 umol/kg, ip administered five times weekly measured at 29 day post cell innoculum (reference value: 1.2 +/- 0.13 g); format: toxicity, organism-based; settings: in vivo, 696 h
# Mus musculus [28] = assay: Nephrotoxicity in BALB/c mdb mouse implanted with mouse 4T1 cells assessed as kidney weight at 450 umol/kg, ip administered five times weekly measured at 29 day post cell innoculum (reference value: 0.136 +/- 0.006 g); format: toxicity, organism-based; settings: in vivo, 696 h
# Mus musculus [29] = assay: Toxicity in BALB/c mdb mouse implanted with mouse 4T1 cells assessed as spleen weight at 450 umol/kg, ip administered five times weekly measured at 29 day post cell innoculum (reference value: 0.603 +/- 0.133 g); format: organism-based; settings: in vivo, 696 h
# Mus musculus [30] = assay: Toxicity in BALB/c mdb mouse implanted with mouse 4T1 cells assessed as lung weight at 450 umol/kg, ip administered five times weekly measured at 29 day post cell innoculum (reference value: 0.2 +/- 0.018 g); format: organism-based; settings: in vivo, 696 h
# 4T1 [31] = assay: Anti-tumor activity against mouse 4T1 cells implanted in BALB/c mdb mouse assessed as lung metastasis at 450 umol/kg, ip administered five times weekly measured at 29 days post cell innoculum (reference value: 56 +/- 25); format: functional
# Mus musculus [32] = assay: Toxicity in BALB/c mdb mouse implanted with mouse 4T1 cells assessed as WBC level at 450 umol/kg, ip administered five times weekly measured at 29 day post cell innoculum (reference value: 212.3 +/- 82.8 10^3/uL); format: organism-based; settings: in vivo, 696 h
# Mus musculus [33] = assay: Toxicity in BALB/c mdb mouse implanted with mouse 4T1 cells assessed as RBC level at 450 umol/kg, ip administered five times weekly measured at 29 day post cell innoculum (reference value: 8.6 +/- 0.9 10^6/uL); format: organism-based; settings: in vivo, 696 h
# Mus musculus [34] = assay: Toxicity in BALB/c mdb mouse implanted with mouse 4T1 cells assessed as hemoglobin level at 450 umol/kg, ip administered five times weekly measured at 29 day post cell innoculum (reference value: 15.1 +/- 1.5 g/dl); format: organism-based; settings: in vivo, 696 h
# Mus musculus [35] = assay: Toxicity in BALB/c mdb mouse implanted with mouse 4T1 cells assessed as hematocrit at 450 umol/kg, ip administered five times weekly measured at 29 day post cell innoculum (reference value: 39.9 +/- 3.7 %); format: organism-based; settings: in vivo, 696 h
# Mus musculus [36] = assay: Toxicity in BALB/c mdb mouse implanted with mouse 4T1 cells assessed as serum PLT level at 450 umol/kg, ip administered five times weekly measured at 29 day post cell innoculum (reference value: 972 +/- 157 10^3/uL); format: organism-based; settings: in vivo, 696 h
# Mus musculus [37] = assay: Toxicity in BALB/c mdb mouse implanted with mouse 4T1 cells assessed as serum ALT level at 450 umol/kg, ip administered five times weekly measured at 29 day post cell innoculum (reference value: 23.8 +/- 2.2 U/L); format: organism-based; settings: in vivo, 696 h
# Mus musculus [38] = assay: Toxicity in BALB/c mdb mouse implanted with mouse 4T1 cells assessed as serum AST level at 450 umol/kg, ip administered five times weekly measured at 29 day post cell innoculum (reference value: 136 +/- 10.3 U/L); format: organism-based; settings: in vivo, 696 h
# Mus musculus [39] = assay: Toxicity in BALB/c mdb mouse implanted with mouse 4T1 cells assessed as serum creatinine level at 450 umol/kg, ip administered five times weekly measured at 29 day post cell innoculum (reference value: 9.3 +/- 1.2 umol/L); format: organism-based; settings: in vivo, 696 h
# Mus musculus [40] = assay: Toxicity in BALB/c mdb mouse implanted with mouse 4T1 cells assessed as serum urea level at 450 umol/kg, ip administered five times weekly measured at 29 day post cell innoculum (reference value: 3.8 +/- […]); format: organism-based; settings: in vivo, 696 h
# LoVo [41] = assay: Cytotoxicity against human LoVo cells assessed as cell death at >15 uM after 24 hrs; format: cell-based
smiles,measurement,setting,value
CC(C)COP(=O)(CCN=C=S)OCC(C)C,Ratio IC50,[1],10
same,Ratio IC50,[2],5
same,Ratio IC50,LoVo [3],10
same,Ratio IC50,LoVo [4],5
same,IC50,LoVo [5],1.9 µM
same,IC50,[6],2.6 µM
O=P1(N(CCCl)CCCl)NCCCO1 (stereo unspecified) [CYCLOPHOSPHAMIDE ANHYDROUS],inhibition in vivo at 25 µmol/kg,4T1 [7],33.3%
CCOP(=O)(CCCCCCN=C=S)OCC,Activity,[8],Toxic
same,Ratio IC50,LoVo [3],10
same,Ratio IC50,LoVo [4],5
same,IC50,HL-60,0.5 µM
same,IC50,HL60/MX2,4 µM
same,Ratio IC50,[9],7.8
same,IC50,LoVo [5],2.1 µM
same,IC50,[6],3.9 µM
same,IC50,BALB/3T3,17.5 µM
same,IC50,A549,11.7 µM
same,IC50,4T1 [10],3.1 µM
same,IC50,MES-SA,10.4 µM
same,IC50,MES-SA/Dx5,9.9 µM
same,Activity,LoVo [11],Active
same,Activity,LoVo/DX [12],Active
same,fold change (FC),[13],3
same,fold change (FC),LoVo [14],3
same,Activity,LoVo/DX [15],inactive
same,Activity,LoVo [16],inactive
same,Activity,LoVo [17],Active
same,Activity,LoVo/DX [18],Active
same,Activity,LoVo [19],inactive
same,Activity,LoVo/DX [20],inactive
same,Activity,LoVo [21],inactive
same,Activity,LoVo [22],Active
same,inhibition in vivo at 450 µmol/kg,4T1 [23],7.1%
same,Activity,Mus musculus [24],<= 10%
same,Activity,Mus musculus [25],> 5%
same,Activity,Mus musculus [26],Non-Toxic
same,Activity,Mus musculus [27],1.24 g
same,Activity,Mus musculus [28],0.14 g
same,Activity,Mus musculus [29],0.493 g
same,Activity,Mus musculus [30],0.219 g
same,Activity,4T1 [31],62
same,Activity,Mus musculus [32],201.2 ×10³ /uL
same,Activity,Mus musculus [33],10.1 ×10⁶ /uL
same,Activity,Mus musculus [34],17.3 g/dL
same,Activity,Mus musculus [35],47.7%
same,Activity,Mus musculus [36],751 ×10³ /uL
same,Activity,Mus musculus [37],28.2 U/L
same,Activity,Mus musculus [38],142.5 U/L
same,Activity,Mus musculus [39],9.3 µmol/L
same,Activity,Mus musculus [40],4.6 mmol/L
same,Activity,LoVo [41],Toxic
